From ChEMBL document CHEMBL6083219, “Rationally designed febuxostat-based hydroxamic acid and its pH-Responsive nanoformulation elicits anti-tumor activity” (Eur J Med Chem, 2024)
The source made the active and inactive calls. The calls are words filed in the database; no cut-off is given here.

Key:
[1] = tested on: Rattus norvegicus; test: Anti-hyperuricemic activity against potassium oxonate-induced hyperuricemia Wistar rat model assessed as decrease in serum uric acid level at 2.5 mg/kg measured after 14 days; type: functional, organism-based; conditions: time 14.0 day
[2] = tested on: K562; test: Cytotoxicity against human K562 cells incubated for 1 day by MTT assay; type: functional, cell-based; conditions: K562, 24 h
[3] = tested on: Rattus norvegicus; test: Anti-hyperuricemic activity against potassium oxonate-induced hyperuricemia Wistar rat model assessed as effect on complete blood count at 2.5 mg/kg measured after 14 days; type: functional, organism-based; conditions: time 14.0 day
[4] = tested on: Rattus norvegicus; test: Anti-hyperuricemic activity against potassium oxonate-induced hyperuricemia Wistar rat model assessed as improvement in renal condition by measuring decrease in tubular cell necrosis at 10 mg/kg measured after 14 days by H and E staining based assay; type: functional, organism-based; conditions: time 14.0 day
[5] = Cytotoxicity against mouse L929 cells incubated for 1 day by MTT assay; type: toxicity, cell-based
[6] = tested on: HL-60; test: Antitumor activity against human HL-60 cells xenografted in BALB/c nude mouse model assessed as reduction in tumor volume at 50 to 100 mg/kg, ip measured twice a week for 22 days; type: functional, organism-based; conditions: dose 50-100 mg/kg, time 22.0 day
[7] = tested on: HL-60; test: Upregulation of cleaved caspase-3 expression level in human HL-60 cells at 0.5 to 2 uM by Western blotting analysis; type: functional, cell-based; conditions: dose 0.5-2 µM
[8] = tested on: MDA-MB-231; test: Induction of apoptosis in human MDA-MB-231 cells assessed as cell death at sub-G1 phase at 0.5 to 1 uM incubated for 48 hrs; type: functional, cell-based; conditions: dose 0.5-1 µM
[9] = tested on: Rattus norvegicus; test: Anti-hyperuricemic activity against potassium oxonate-induced hyperuricemia Wistar rat model assessed as improvement in renal condition at 5 mg/kg by measuring decrease in enlargement of tubular cells measured after 14 days by H and E staining based assay; type: functional, organism-based; conditions: time 14.0 day
[10] = tested on: Rattus norvegicus; test: Anti-hyperuricemic activity against potassium oxonate-induced hyperuricemia Wistar rat model assessed as improvement in renal condition at 2.5 mg/kg measured after 14 days by H and E staining based assay; type: functional, organism-based; conditions: time 14.0 day
[11] = tested on: MDA-MB-231; test: cells; conditions: Homo sapiens, MDA-MB-231, 48 h
Description: Cytotoxicity against human MDA-MB-231 cells incubated for 48 hrs by MTT assay

[12] = tested on: MDA-MB-231; test: Downregulation of HDAC2 expression level in human MDA-MB-231 cells at 0.5 to 2 uM by Western blotting analysis; type: functional, cell-based; conditions: dose 0.5-2 µM
[13] = tested on: MDA-MB-231; test: Downregulation of HDAC6 expression level in human MDA-MB-231 cells at 0.5 to 2 uM by Western blotting analysis; type: functional, cell-based; conditions: dose 0.5-2 µM
[14] = tested on: HL-60; test: Induction of autophagy in human HL-60 cells at 0.5 to 2 uM by acridine orange staining based microscopic assay; type: functional, cell-based; conditions: dose 0.5-2 µM
[15] = tested on: Rattus norvegicus; test: Anti-hyperuricemic activity against potassium oxonate-induced hyperuricemia Wistar rat model assessed as decrease in blood urea level at 2.5 mg/kg measured after 14 days; type: functional, organism-based; conditions: time 14.0 day

IC50 [11]: 2940 nM
Compound: Cc1nc(-c2ccc(OCC(C)C)c(C#N)c2)sc1C(=O)NCCCCCCC(=O)NO
Activity [1]: inactive
IC50 [2]: 1210 nM
Activity [3]: inactive
Activity [4]: Active
IC50 at 1 day [5]: 2230 nM
Activity [6]: Active; Activity More Potent Than Saha
Activity [7]: Active
Activity [8]: Active
Activity [9]: Active
Activity [10]: inactive
Activity [12]: Active
Activity [13]: Active
Activity [14]: Active
Activity [15]: inactive
